Data as given in patent US20120034613A1, “Apparatus and Method for Testing Relationships Between Gene Expression and Physical Appearance of Skin” (NSE Products, Inc., priority 2010, published 2012).

Test system: EpidermFT™ Skin Model (EFT-400) full thickness skin cultures
Assay: Affymetrix GeneChip HG U133 Plus 2.0 microarray global gene expression, agent-exposed vs untreated skin cultures
Assay type: cell-based, human
[1] = probe 206026_s_at, Table 3 skin structure
[2] = probe 209126_x_at, Table 3 skin structure
[3] = probe 209792_s_at, Table 3 skin structure

OCc1ccccc1O[C@@H]1O[C@H](CO)[C@@H](O)[C@H](O)[C@H]1O [Salicin, 2-(Hydroxymethyl)phenyl β-D-glucospyranoside]
Direction PTPRG (probe 204944_at, 0.5%, 24 hr): up
Fold change PTPRG (probe 204944_at, 0.5%, 24 hr): 2.299
Direction ITGB4 (probe 204990_s_at, 0.5%, 24 hr): down
Fold change ITGB4 (probe 204990_s_at, 0.5%, 24 hr): 4.527
Direction FGFBP1 (probe 205014_at, 0.5%, 24 hr): down
Fold change FGFBP1 (probe 205014_at, 0.5%, 24 hr): 3.406
Direction TGFA (probe 205015_s_at, 0.5%, 24 hr): down
Fold change TGFA (probe 205015_s_at, 0.5%, 24 hr): 3.134
Direction FGF13 (probe 205110_s_at, 0.5%, 24 hr): up
Fold change FGF13 (probe 205110_s_at, 0.5%, 24 hr): 2.158
Direction PTGS1 (probe 205128_x_at, 0.5%, 24 hr): up
Fold change PTGS1 (probe 205128_x_at, 0.5%, 24 hr): 2.327
Direction IL6 (probe 205207_at, 0.5%, 24 hr): up
Fold change IL6 (probe 205207_at, 0.5%, 24 hr): 3.197
Direction LIF (probe 205266_at, 0.5%, 24 hr): up
Fold change LIF (probe 205266_at, 0.5%, 24 hr): 3.702
Direction ATP2B4 (probe 205410_s_at, 0.5%, 24 hr): up
Fold change ATP2B4 (probe 205410_s_at, 0.5%, 24 hr): 3.984
Direction KLK11 (probe 205470_s_at, 0.5%, 24 hr): down
Fold change KLK11 (probe 205470_s_at, 0.5%, 24 hr): 3.318
Direction TAGLN (probe 205547_s_at, 0.5%, 24 hr): up
Fold change TAGLN (probe 205547_s_at, 0.5%, 24 hr): 2.426
Direction EREG (probe 205767_at, 0.5%, 24 hr): up
Fold change EREG (probe 205767_at, 0.5%, 24 hr): 2.487
Direction FGF7 (probe 205782_at, 0.5%, 24 hr): up
Fold change FGF7 (probe 205782_at, 0.5%, 24 hr): 3.158
Direction KLK13 (probe 205783_at, 0.5%, 24 hr): down
Fold change KLK13 (probe 205783_at, 0.5%, 24 hr): 3.619
Direction CLGN (probe 205830_at, 0.5%, 24 hr): up
Fold change CLGN (probe 205830_at, 0.5%, 24 hr): 2.486
Direction KRT1 (probe 205900_at, 0.5%, 24 hr): down
Fold change KRT1 (probe 205900_at, 0.5%, 24 hr): 4.141
Direction CREB5 (probe 205931_s_at, 0.5%, 24 hr): up
Fold change CREB5 (probe 205931_s_at, 0.5%, 24 hr): 9.909
Direction IL15 (probe 205992_s_at, 0.5%, 24 hr): up
Fold change IL15 (probe 205992_s_at, 0.5%, 24 hr): 4.326
Direction TNFAIP6 (probe 206025_s_at, 0.5%, 24 hr): up
Fold change TNFAIP6 (probe 206025_s_at, 0.5%, 24 hr): 3.182
Direction TNFAIP6 [1]: up
Fold change TNFAIP6 [1]: 2.52
Direction DSC3 (probe 206033_s_at, 0.5%, 24 hr): down
Fold change DSC3 (probe 206033_s_at, 0.5%, 24 hr): 4.676
Direction BMP6 (probe 206176_at, 0.5%, 24 hr): up
Fold change BMP6 (probe 206176_at, 0.5%, 24 hr): 7.765
Direction CDSN (probe 206193_s_at, 0.5%, 24 hr): down
Fold change CDSN (probe 206193_s_at, 0.5%, 24 hr): 11.11
Direction MAP3K13 (probe 206249_at, 0.5%, 24 hr): up
Fold change MAP3K13 (probe 206249_at, 0.5%, 24 hr): 2.252
Direction IL18 (probe 206295_at, 0.5%, 24 hr): down
Fold change IL18 (probe 206295_at, 0.5%, 24 hr): 19.31
Direction CCL13 (probe 206407_s_at, 0.5%, 24 hr): up
Fold change CCL13 (probe 206407_s_at, 0.5%, 24 hr): 5.516
Direction F2RL1 (probe 206429_at, 0.5%, 24 hr): down
Fold change F2RL1 (probe 206429_at, 0.5%, 24 hr): 2.099
Direction IL24 (probe 206569_at, 0.5%, 24 hr): up
Fold change IL24 (probe 206569_at, 0.5%, 24 hr): 8.737
Direction IL18R1 (probe 206618_at, 0.5%, 24 hr): up
Fold change IL18R1 (probe 206618_at, 0.5%, 24 hr): 2.865
Direction HAL (probe 206643_at, 0.5%, 24 hr): down
Fold change HAL (probe 206643_at, 0.5%, 24 hr): 55.87
Direction DGKI (probe 206806_at, 0.5%, 24 hr): up
Fold change DGKI (probe 206806_at, 0.5%, 24 hr): 2.74
Direction IL11 (probe 206924_at, 0.5%, 24 hr): up
Fold change IL11 (probe 206924_at, 0.5%, 24 hr): 9.694
Direction IL8RB (probe 207008_at, 0.5%, 24 hr): down
Fold change IL8RB (probe 207008_at, 0.5%, 24 hr): 11.11
Direction DSC1 (probe 207324_s_at, 0.5%, 24 hr): down
Fold change DSC1 (probe 207324_s_at, 0.5%, 24 hr): 12.95
Direction PTGES (probe 207388_s_at, 0.5%, 24 hr): up
Fold change PTGES (probe 207388_s_at, 0.5%, 24 hr): 2.768
Direction CSF3 (probe 207442_at, 0.5%, 24 hr): up
Fold change CSF3 (probe 207442_at, 0.5%, 24 hr): 11.09
Direction IL1RL1 (probe 207526_s_at, 0.5%, 24 hr): up
Fold change IL1RL1 (probe 207526_s_at, 0.5%, 24 hr): 9.09
Direction LCE2B (probe 207710_at, 0.5%, 24 hr): down
Fold change LCE2B (probe 207710_at, 0.5%, 24 hr): 200.5
Direction LOR (probe 207720_at, 0.5%, 24 hr): down
Fold change LOR (probe 207720_at, 0.5%, 24 hr): 32.35
Direction KRT9 (probe 208188_at, 0.5%, 24 hr): down
Fold change KRT9 (probe 208188_at, 0.5%, 24 hr): 2.539
Direction SPRR2B (probe 208539_x_at, 0.5%, 24 hr): down
Fold change SPRR2B (probe 208539_x_at, 0.5%, 24 hr): 5.554
Direction PDE3B (probe 208591_s_at, 0.5%, 24 hr): up
Fold change PDE3B (probe 208591_s_at, 0.5%, 24 hr): 2.851
Direction FADS1 (probe 208962_s_at, 0.5%, 24 hr): up
Fold change FADS1 (probe 208962_s_at, 0.5%, 24 hr): 2.889
Direction KRT6A (probe 209125_at, 0.5%, 24 hr): down
Fold change KRT6A (probe 209125_at, 0.5%, 24 hr): 2.034
Direction KRT6B [2]: down
Fold change KRT6B [2]: 3.952
Direction TM4SF1 (probe 209387_s_at, 0.5%, 24 hr): up
Fold change TM4SF1 (probe 209387_s_at, 0.5%, 24 hr): 3.187
Direction SPON1 (probe 209437_s_at, 0.5%, 24 hr): up
Fold change SPON1 (probe 209437_s_at, 0.5%, 24 hr): 2.36
Direction CALM1 /// CALM2 /// CALM3 (probe 209563_x_at, 0.5%, 24 hr): down
Fold change CALM1 /// CALM2 /// CALM3 (probe 209563_x_at, 0.5%, 24 hr): 2.029
Direction GATA3 (probe 209602_s_at, 0.5%, 24 hr): down
Fold change GATA3 (probe 209602_s_at, 0.5%, 24 hr): 15.7
Direction CXCL2 (probe 209774_x_at, 0.5%, 24 hr): up
Fold change CXCL2 (probe 209774_x_at, 0.5%, 24 hr): 7.546
Direction CASP6 (probe 209790_s_at, 0.5%, 24 hr): down
Fold change CASP6 (probe 209790_s_at, 0.5%, 24 hr): 2.668
Direction KLK10 [3]: down
Fold change KLK10 [3]: 4.49
Direction PKP3 (probe 209873_s_at, 0.5%, 24 hr): down
Fold change PKP3 (probe 209873_s_at, 0.5%, 24 hr): 4.615
Direction CALML3 (probe 210020_x_at, 0.5%, 24 hr): down
Fold change CALML3 (probe 210020_x_at, 0.5%, 24 hr): 11.27
Direction CSF2 (probe 210229_s_at, 0.5%, 24 hr): up
Fold change CSF2 (probe 210229_s_at, 0.5%, 24 hr): 16.55
Direction FLT1 (probe 210287_s_at, 0.5%, 24 hr): up
Fold change FLT1 (probe 210287_s_at, 0.5%, 24 hr): 3.95
Direction HYAL1 (probe 210619_s_at, 0.5%, 24 hr): down
Fold change HYAL1 (probe 210619_s_at, 0.5%, 24 hr): 4.538
